pEC50: −log10 of the molar value.
System: FSK-4 cells
Test: Assay (I): Glucose utilisation in a human epithelia cell line (FSK4 cells), D-(6-3H(N))-glucose
Format: cell-based
Settings: 24 hours incubation, Hill equation, read-out: GlucosFSK4 EC50
Experimental: Assay (I): Glucose Utilisation in a Human Epithelia Cell Line (FSK4 cells)
The ^3H-proton will first be released in the TCA cyclus and transported to the respiratory chain where it will be incorporated into water. The water is thereafter separated from the D-(6-^3H(N))-glucose by evaporation.
FSK-4 cells obtained from ATCC (Maryland, USA), are cultured in growth medium (McCoy's medium with the following addition 100 units/ml penicillin and streptomycin and 10% FCS (fetal calf serum)) at 37° C. and 5% CO2.
The cells are then incubated for another 24 hours at 37° C. and 5% CO2.
The half maximal concentration (EC50) and maximal efficacy (Emax) are calculated using the Hill equation in GraphPad Prism 3.0 (GraphPad software, Inc.). […] From the percentage increase in glucose utilisation the linear slope is calculated using the Michaelis-Menten equation.

pEC50 | SMILES
6.00 | CC(C)(C)c1cc(/C=C(\C#N)S(=O)(=O)c2cccc3ccccc23)cc(C(C)(C)C)c1O [Example 30, 3-(3,5-Di-tert-butyl-4-hydroxy-phenyl)-2-(naphthalene-1-sulfonyl)-acrylonitrile]
< 5.00 | N#C/C(=C\c1ccc(O)c([N+](=O)[O-])c1)S(=O)(=O)c1ccc(Cl)cc1 [Example 4, (E)-2-(4-Chloro-benzenesulfonyl)-3-(4-hydroxy-3-nitro-phenyl)-acrylonitrile]

— patent US20060128662A1, “Novel compounds for treatment of obesity” (Novo Nordisk A/S, priority 2003, published 2006)
